Test results taken from PMC6861283, “Novel Small Molecules Targeting the Intrinsically Disordered Structural Ensemble of α-Synuclein Protect Against Diverse α-Synuclein Mediated Dysfunctions” (Scientific Reports, 2019).

Key:
α-synuclein (αSyn) [1] = biological target: T1, α-synuclein (αSyn) (Homo sapiens, UniProt P37840); assay: split Gaussia luciferase oligomerization assay; also FRET oligomerization, ThT fibrillization, HT-CM-SPR hit (tethered); assay type: biochemical; design: gene SNCA; αSyn-GLuc1 and αSyn-GLuc2 (split Gaussia luciferase fragment fused to the C-terminus of αSyn); monomeric αSyn in SPR and fibrillization
α-synuclein (αSyn) [2] = biological target: T1, α-synuclein (αSyn); assay: split Gaussia luciferase oligomerization assay; also FRET oligomerization, HT-CM-SPR hit (tethered); assay type: biochemical; design: gene SNCA; αSyn-GLuc1 and αSyn-GLuc2 (split Gaussia luciferase fragment fused to the C-terminus of αSyn); monomeric αSyn in SPR

## CNC(=O)CN(C(=O)Cc1noc2ccccc12)C(C)c1ccc(Cl)cc1 (stereo not drawn) [compound 582032, 582032]
α-synuclein (αSyn) [1]
  IC50: 290 µM

## Cc1c(-c2csc(NC(C(N)=O)C3CCNCC3)n2)sc2ccccc12 (stereo not drawn) [compound 573437, 573437]
α-synuclein (αSyn) [2]
  IC50: 104 µM

## CNC(=O)c1cc(O)ccc1N [compound 576755, 576755]
α-synuclein (αSyn) [1]
  IC50: 10.5 µM
